Measured values as given in patent US20130109734A1 (Metabolex, Inc., priority 2010, published 2013).

The compounds below were run against T1, human GPR120 (Homo sapiens, UniProt Q5NUL3) (assay: Intracellular Ca2+ assay in human GPR120 stable cell line (HEK293 co-expressing Gqi5), Flexstation). Conditions: % activity at 5 μM compared to the maximal activity of GW9508 at 6.7 μM (=100%); human GPR120 cells, Ca2+ fluorescence.
T1 construct: host or cells: HEK293 cells co-expressing Gqi5
T1 sequence (Q5NUL3 1-361): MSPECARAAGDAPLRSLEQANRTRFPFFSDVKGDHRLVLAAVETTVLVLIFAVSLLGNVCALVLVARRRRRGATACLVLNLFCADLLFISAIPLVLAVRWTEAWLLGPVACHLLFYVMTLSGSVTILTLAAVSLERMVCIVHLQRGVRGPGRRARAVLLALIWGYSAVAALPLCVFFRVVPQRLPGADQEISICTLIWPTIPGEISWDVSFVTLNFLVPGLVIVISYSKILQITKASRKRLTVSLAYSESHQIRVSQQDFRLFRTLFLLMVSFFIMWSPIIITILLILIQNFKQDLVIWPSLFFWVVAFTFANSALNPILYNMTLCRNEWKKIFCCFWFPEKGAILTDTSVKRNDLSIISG
Assay type: cell-based
Protocol: Human GPR120 stable cell line was purchased from Multispan Inc (26219 Eden Landing Road, Hayward, Calif. 94545). This GPR120 cell line was generated in HEK293 cells co-expressing Gqi5. In this cell line, the Flag epitope tag (DYKDDDDK) was fused to the amino terminus of human GPR120 protein.
The concentration of intracellular Ca^2+ was measured as described below. Human GPR120 cells were plated in 96 well plates (Poly-D-Lysine coated black/clear Plate, Greiner Bio-One) at 70,000 cells per well and cultured overnight in conditions of 37° C. and 5% CO2. A Ca^2+assay dye stock solution was prepared by adding 10 mL of assay buffer (HBSS/20 mM HEPES, pH 7.4) to FLIPR Calcium 4 Assay Bulk Kit (Molecular Devices). The 10 mL of Ca^2+ assay dye solution was prepared by further diluting 0.5 mL of Ca^2+ assay dye stock solution with 10 mL of assay buffer. The medium of the cells was removed and immediately 100 μL of the Ca^2+ assay dye solution was dispensed into each well followed by incubation at 37° C. and 5% CO2 for 50 minutes to incorporate the Ca^2+ dye into the cells. The cell plate was then placed in the Flexstation (Molecular Devices) for 20 minutes at 37° C. Compounds were dissolved in 100% DMSO and diluted to desired concentrations with assay buffer and placed in the Flexstation simultaneously with the cell plate for 20 minute incubation at 37° C. prior to reading. Fluorescence intensity was measured immediately following compound addition (25 μL/well) on the Flexstation at an excitation wavelength of 485 nm and an emission wavelength of 525 with 515 nm auto cutoff. The resulting increase in fluorescence intensities corresponds to increases in intracellular Ca^2+ levels.
Compounds were dissolved in 100% DMSO to a concentration of 20 mM to provide stock solutions. To determine activity against human GPR120, compounds were added with human GPR120 stably expressing cells (described above), at eight desired concentrations ranging from 0.00001 to 20 μM, in 96 well plates and fluorescence intensities were measured for 90 seconds with 2-second intervals. An EC50 value (concentration of the GPR120 agonist where 50% of the agonist's maximal activity is observed) was calculated using the changes (Max−Min) of fluorescence intensity.
To determine percent activity for a tested compound, the fluorescence intensity value obtained at a particular concentration were compared to the maximal fluorescence intensity value obtained for reference compound GW9508 (4-[[(3-phenoxyphenyl)methyl]amino]benzene propanoic acid; British Journal of Pharmacology 2006 148, 619-628) or the compound of Example 25. When GW9508 was used as the reference compound, the maximal activity of GW9508 at 6.7 μM was designated as 100% activity. When the compound of Example 25 was used as the reference compound, the maximal activity of the compound of Example 25 at 2.5 μM was designated as 100% activity. Typically, the GW9508 activity reached a maximum at a concentration of approximately 6.7 μM and typically the compound of Example 25 reached a maximum activity at approximately 2.5 μM.

| Compound | % Activity (GW9508 Reference Compound) [%] |
| --- | --- |
| CC1(C)Cc2cc(Cl)cc(COc3c(F)cc(C4CC4C(=O)O)cc3F)c2O1 (racemic) [Example 35, 2-(4-((5-chloro-2,2-dimethyl-2,3-dihydrobenzofuran-7-yl)methoxy)-3,5-difluorophenyl)cyclopropanecarboxylic acid] | 60.11 |
| CC1(C)Cc2cc(F)cc(COc3c(F)cc(CC4CC4C(=O)O)cc3F)c2O1 (racemic) [Example 184, 2-(3,5-difluoro-4-((5-fluoro-2,2-dimethyl-2,3-dihydrobenzofuran-7-yl)methoxy)benzyl)cyclopropanecarboxylic acid] | 97.04 |
| CC1(C)Cc2cc(F)cc(COc3ccc(C4CC4C(=O)O)cc3)c2O1 (single isomer, unassigned) [Example 131A, 2-(4-((5-fluoro-2,2-dimethyl-2,3-dihydrobenzofuran-7-yl)methoxy)phenyl)cyclopropanecarboxylic acid] | 103.75 |
| CC1(C)Cc2cc(F)cc(COc3ccc(C4CC4C(=O)O)cc3)c2O1 (single isomer, unassigned) [Example 131B, 2-(4-((5-fluoro-2,2-dimethyl-2,3-dihydrobenzofuran-7-yl)methoxy)phenyl)cyclopropanecarboxylic acid] | 105.8 |
| CC1(C)Cc2cc(F)cc(COc3c(F)cc(CC4CC4C(=O)O)cc3F)c2O1 (single isomer, unassigned) [Example 184A, 2-(3,5-difluoro-4-((5-fluoro-2,2-dimethyl-2,3-dihydrobenzofuran-7-yl)methoxy)benzyl)cyclopropanecarboxylic acid] | 95.58 |
| CC1(C)Cc2cc(F)cc(COc3c(F)cc(CC4CC4C(=O)O)cc3F)c2O1 (single isomer, unassigned) [Example 184B, 2-(3,5-difluoro-4-((5-fluoro-2,2-dimethyl-2,3-dihydrobenzofuran-7-yl)methoxy)benzyl)cyclopropanecarboxylic acid] | 130.66 |
| CC(Cc1cc(F)c(OCc2cccc3c2OC(C)(C)CC3)c(F)c1)C(=O)O (stereo not shown) [Example 2, 3-(4-((2,2-dimethylchroman-8-yl)methoxy)-3,5-difluorophenyl)-2-methylpropanoic acid] | 134.6745 |
| CC(Cc1cc(F)c(OCc2cccc3c2OCC3)c(F)c1)C(=O)O (stereo not shown) [Example 3, 3-(4-((2,3-dihydrobenzofuran-7-yl)methoxy)-3,5-difluorophenyl)-2-methylpropanoic acid] | 123.7995 |
| Cc1cc(COc2ccc(CC(C)C(=O)O)cc2)c2c(c1)CC(C)(C)O2 (stereo not shown) [Example 4, 2-methyl-3-(4-((2,2,5-trimethyl-2,3-dihydrobenzofuran-7-yl)methoxy)phenyl)propanoic acid] | 110.8 |
| Cc1cc(COc2c(F)cc(CC(C)C(=O)O)cc2F)c2c(c1)CC(C)(C)O2 (stereo not shown) [Example 5, 3-(3,5-difluoro-4-((2,2,5-trimethyl-2,3-dihydrobenzofuran-7-yl)methoxy)phenyl)-2-methylpropanoic acid] | 149.2 |
| Cc1cc(CC(C)C(=O)O)ccc1OCc1cc(F)cc2c1OC(C)(C)C2 (stereo not shown) [Example 6, 3-(4-((5-fluoro-2,2-dimethyl-2,3-dihydrobenzofuran-7-yl)methoxy)-3-methylphenyl)-2-methylpropanoic acid] | 147.3 |
| COc1cc(CC(C)C(=O)O)ccc1OCc1cc(F)cc2c1OC(C)(C)C2 (stereo not shown) [Example 7, 3-(4-((5-fluoro-2,2-dimethyl-2,3-dihydrobenzofuran-7-yl)methoxy)-3-methoxyphenyl)-2-methylpropanoic acid] | 168.2 |

Same assay, conditions: human GPR120 cells, Ca2+ fluorescence; reference compounds, typical value

| Compound | concentration at which activity reached a maximum |
| --- | --- |
| 4-[[(3-phenoxyphenyl)methyl]amino]benzene propanoic acid [GW9508, reference compound] | approximately 6.7 μM |
